Read-outs that look alike come from different tables or passages of the source.
Legend:
HBV [1] = experiment: HepG2 H1.3 HBV stable clone: capsid-associated HBV-DNA, cccDNA and pgRNA by real-time PCR; assay type: cell-based, hepatitis B virus genotype D
Source text: HAP12 treatment is started at day 10 of “differentiation” when HBV replication is high and the cccDNA pool is expanded. pgRNA is transcribed from both cccDNA and integrated HBV. b) Cytoplasmic HBV core particles, nuclear cccDNA (c) and total mRNAs (d) were isolated from untreated and HAP12-treated cells at the indicated time points. HBV-DNA, cccDNA and pgRNA results are expressed as in FIG. 2. Histograms show mean values from two independent experiments; bars indicate standard deviations (SD).
By treating the HepG2 H1.3 cells with HAP12 before the establishment of the cccDNA pool it was shown that cccDNA formation and accumulation […] by HAP12. Under these conditions the effect on HBV replication is maximal. a) HAP12 treatment is started at day 0 of “differentiation” when HBV replication and cccDNA levels are very low. b) Cytoplasmic HBV core particles, nuclear cccDNA (c) and total mRNAs (d) were isolated from untreated and HAP12-treated cells at the indicated time points. HBV-DNA, cccDNA and pgRNA results are expressed as in FIG. 2. Histograms show mean values from two independent experiments; bars indicate standard deviations (SD).
(§1) The activity of the hetero-aryl-dihydropyrimidine HAP12 compound on capsid-associated HBV-DNA (TaqMan real-time PCR), cccDNA (TaqMan real-time PCR) (Werle-Lapostolle, Gastroenterology 2004) and pgRNA levels (quantitative realtime PCR) (Belloni, PNAS 2009) were assessed in three in vitro HBV replication models:
b) the HepG2 H1.3 genotype D HBV stable clone that accumulates cccDNA when cultured in “conditioned” medium at high confluence (Protzer, Gastroenterology 2007; Lucifora, J Hepatol 2011);

HBV RNA = experiment: Transient transfection of Huh-7 cells, cytoplasmic RNA quantified by RT-PCR; assay type: cell-based, hepatitis B virus; conditions: for EC50: Hepatitis B virus
Experimental: FIG. 7 Several compounds were used to treat a transient transfection of Huh-7 cells (Huh-7 is a well differentiated hepatocyte derived cellular carcinoma cell line). Cytoplasmic RNA was harvested and quantified by RT-per. Treatment/dynamic range/ED50: DMSO/1.6/NA; AT130/25/0.5 μM; HAP13/20/5 μM; HAP12/36/0.5 μM.
(§2) CpAMs were used to treat a transient transfection of huh7 cells. Cytoplasmic RNA was harvested and quantified by RT-per. The transfection system is described by Lentz and Loeb (Lentz and Loeb (2010) J Virol Methods 169, 52-60.) Fresh medium with drug was added to cultured cells daily for four days at concentrations from 0.001 to 10 micromolar. The two points at 0.00001 are both controls where there was no drug and no DMSO. The controls and the DMSO-treated cells had similar amounts of RNA. […] (See FIG. 7)

HBV [2] = experiment: HepG2 cells transfected with linear full-length HBV DNA: capsid-associated HBV-DNA, cccDNA and pgRNA by real-time PCR; assay type: cell-based, hepatitis B virus genotype A
Source text: a) In HepG2 cells transfected with monomeric linear full length HBV pgRNA and HBV replication are dependent on cccDNA formation, chromatinization and transcription. b) Cytoplasmic HBV core particles were isolated from untreated and HAP12-treated cells at the indicated time points after transfection. Results are expressed as number of HBV DNA copies per transfected cells. c) cccDNA accumulation in untreated and HAP12-treated HepG2 cells transfected with wild type HBV genomes. qPCR analysis was performed using selective cccDNA primers to amplify cccDNA and beta-globin primers to normalize the DNA samples. Results are expressed as number of cccDNA copies per transfected cells. d) mRNAs were prepared from untreated and […] HepG2 cells transfected with wild type HBV genomes and harvested at the indicated times post-transfection. Specific primers were utilized to quantify the HBV pregenomic RNA and GAPDH amplification was used to normalize for equal loading of each RNA sample. All histograms show mean values from two independent experiments; bars indicate standard deviations (SD)
as §1
a) HepG2 cells transfected with a linear full-length genotype A HBV DNA (Gunther, J Virol 1995; Pollicino, Gastroenterology 2006);

[3] = tested on: HBc binding to the cccDNA; experiment: cccDNA ChIP assay in HepG2 H1.3 cells; assay type: cell-based, hepatitis B virus; conditions: 10 days treatment
Source text: FIG. 6 HAP12 interferes with HBc binding to the cccDNA. It is herein described that using a cccDNA ChIP assay (a), that HBc is recruited onto the cccDNA in HBV replicating HepG2 cells (b) and in the HepG2 H1.3 stable cell line. […] It is believe that this finding is in agreement with the observed inhibition of cccDNA transcription and pgRNA production in HAP12 treated cells. HAP12 treatment is started at day 10 of HepG2 H1.3 cells “differentiation” (see legend to FIG. 3). Cross-linked chromatin was prepared from untreated and HAP12-treated cells at TO (before treatment, 10 gg “differentiation”) and at T10 (10 days of exposure to HAP12, 20 gg from beginning of […], #H1905-15). ChIPped chromatin was analyzed by qPCR with HBV cccDNA selective primers. Results are expressed as % of input. Histograms show mean values from two independent experiments; bars indicate standard deviations (SD).
Recruitment of HBc and cccDNA bound histones modifications were assessed using the cccDNA ChIP assay (Pollicino, 2006)

HBV [4] = experiment: Suppression of secreted HBV DNA synthesis; assay type: cell-based; conditions: Hepatitis B virus
Experimental: Antiviral activity was measured using an inducible HBV expression system, AD38 cells. (Ladner, S. K. et al., Antimicrob Agents Chemother 41, 1715-20 (1997)). Initial experiments tested the activity of 10 μM HAP (percentage viral assembly at 24 hour). For active molecules, effective concentrations were determined for suppression of HBV production by 50% and by 90%; this value is reported in μM. Compound toxicity was tested in the parent cell line, HepG2. This is reported as the concentration required to suppress cell growth by 50%, CC50 (in μM) and as the ratio of CC50/EC50, also known as the therapeutic index. As a control and for comparison, the results for the nucleoside analog 3TC (lamivudine) also described.
as §2

HBV [5] = experiment: AD38 stable cell line (tetracycline removal): cytoplasmic core particle HBV DNA and pgRNA; assay type: cell-based, hepatitis B virus genotype D; conditions: AD38 cells, treatment started at day 0 or day 6
Source text: FIG. 5 HAP12 targets cccDNA transcription in AD38 cells. […] The cccDNA pool is built up from the recycling of mature core particles to the nucleus after HBV replication is started from the pgRNA initially transcribed from the “tet-regulated” HBV integrated DNA (b). HAP12 treatment is started at day 0 (left panels) or day 6 (right panels). c) Cytoplasmic HBV core particles, and total mRNAs (d) were isolated from untreated and HAP12-treated cells at the indicated time points. HBV DNA, cccDNA and pgRNA results are expressed as in FIG. 2. All histograms show mean values from two independent experiments; bars indicate standard deviations (SD).
as §1
c) the AD38 cells are a stable HepG2-derived HBV genotype D clone that, upon tetracycline removal, expresses pgRNA,
assembles subviral particles in the cytoplasm, accumulates cccDNA in the nucleus and secretes HBV virions in the cell supernatant (Ladner, J Virol 1997).

[6] = HepG2 H1.3, treatment started at day 0, before establishment of the cccDNA pool
[7] = HepG2 H1.3, treatment started at day 10 of differentiation
[8] = Huh-7, 96 h, huh7 transient transfection, drug daily for four days, read-out: EC50 for RNA suppression
[9] = Huh-7 transient transfection, read-out: ED50 (cytoplasmic RNA)

SMILES | cccDNA formation/accumulation (HBV [1]; [6]) | effect on HBV replication (HBV [1]; [6]) | effect on HBV replication (HBV [1]; [7]) | effect on pgRNA transcription (HBV [1]; [7]) | EC50 (HBV RNA; [8]) [nM] | EC50 (HBV RNA; [9]) [nM] | dynamic range (cytoplasmic RNA) (HBV RNA; Huh-7 transient transfection) | decrease in cccDNA levels (HBV [2]) [%] | suppression of HBV replication (HBV [2]; 72 and 96 hrs) | peak reduction of pgRNA transcription (HBV [2]; at 96 hours) [%] | cccDNA HBc occupancy [3] | cccDNA-bound H3 histone acetylation [3] | EC50 (HBV [4]) [nM] | effect on HBV replication (HBV [5]) | effect on pgRNA transcription (HBV [5])
COC(=O)C1=C(CN2CCOCC2)NC(c2ccccn2)=NC1c1ccc(F)cc1Cl (centres unmarked) [HAP12] | does not prevent | maximal | inhibitory effect | inhibitory effect | 500 | 500 | 36 | ~30 | complete suppression | > 50 | strongly inhibited | sharp decrease | 12 | inhibitory effect | inhibitory effect
COC(=O)C1=C(CN2CCNCC2)NC(c2ccccn2)=NC1c1ccc(F)cc1Cl (centres unmarked) [HAP13] | – | – | – | – | 5000 | 5000 | 20 | – | – | – | – | – | 6100 | – | –
COc1ccccc1/C(Br)=C(\NC(=O)c1ccc([N+](=O)[O-])cc1)C(=O)N1CCCCC1 [AT130, (E)-N-(1-Bromo-1-(2-methoxyphenyl)-3-oxo-3-(piperidin-1-yl)prop-1-en-2-yl)-4-nitrobenzamide] | – | – | – | – | 500 | 500 | 25 | – | – | – | – | – | 2400 | – | –

— US20150292045A1, “ALTERNATIVE USES FOR HBV ASSEMBLY EFFECTORS” (INDIANA UNIVERSITY RESEARCH AND TECHNOLOGY CORPORATION, priority 2012, published 2015)
